Legend:
[1] = tested on: grape seedlings cultivar (cv.) Gutedel; experiment: Plant growth regulation effects on grape seedlings; assay type: in vivo; settings: 200 ppm, spray chamber, 8 days at 22° C. and 80% r.h.
Experimental: Five weeks old grape seedlings cultivar (cv.) Gutedel were treated with the formulated test compound in a spray chamber. After an incubation period of 8 days at 22° C. and 80% relative humidity (r.h.) in a greenhouse, the plant growth regulating effects were assessed.

[2] = PGR activity of separated enantiomers (test not specified); settings: (R)- versus (S)-enantiomer of compound 146
Botrytis cinerea = experiment: Fungal growth inhibition in nutrient broth, microtiter plate, photometric; assay type: cell-based; settings: 200 ppm, 24° C., 72 hours
Experimental: (§1) Botrytis cinerea (Gray mould): Conidia of the fungus from cryogenic storage were directly mixed into nutrient broth (PDB potato dextrose broth). After placing a (DMSO) solution of the test compounds into a microtiter plate (96-well format) the nutrient broth containing the fungal spores was added. The test plates were incubated at 24° C. and the inhibition of growth was determined photometrically after 72 hours. Compound (S)-(146) gave at least 80% control of Botrytis cinerea at 200 ppm.

Mycosphaerella arachidis = experiment: as above; assay type: cell-based, Mycosphaerella arachidis (syn. Cercospora arachidicola); settings: 200 ppm, 24° C., 72 hours, 620 nm
Experimental: as §1, with “Mycosphaerella arachidis (syn. Cercospora arachidicola), Brown leaf spot of groundnut (peanut):” for “Botrytis cinerea (Gray mould):”, “hours at 620 nm.” for “hours.”, “Mycosphaerella arachidis” for “Botrytis cinerea”

Septoria tritici = experiment: as above; assay type: cell-based; settings: 200 ppm, 24° C., 72 hours
Experimental: as §1, with “Septoria tritici (leaf blotch):” for “Botrytis cinerea (Gray mould):”, “Septoria tritici” for “Botrytis cinerea”

Monographella nivalis = experiment: as above; assay type: cell-based; settings: 200 ppm, 24° C., 72 hours, 620 nm
Experimental: as §1, with “Monographella nivalis (syn. Microdochium nivale, Fusarium nivale), snow mould, foot rot of cereals:” for “Botrytis cinerea (Gray mould):”, “hours at 620 nm.” for “hours.”, “Monographella nivalis” for “Botrytis cinerea”

Fusarium culmorum = experiment: as above; assay type: cell-based; settings: 200 ppm, 24° C., 48 hours
Experimental: as §1, with “Fusarium culmorum (root rot):” for “Botrytis cinerea (Gray mould):”, “48” for “72”, “Fusarium culmorum” for “Botrytis cinerea”

Rhizoctonia solani = experiment: as above; assay type: cell-based; settings: 200 ppm, 24° C., 48 h
Experimental: as §1, with “Rhizoctonia solani (foot rot, damping-off): Mycelial fragments” for “Botrytis cinerea (Gray mould): Conidia”, “fungus, prepared” for “fungus”, “a fresh liquid culture,” for “cryogenic storage”, “mycelium” for “spores”, “48 h.” for “72 hours.”, “Rhizoctonia solani” for “Botrytis cinerea”

summer wheat = experiment: Plant growth effects on cereals: spray at beginning of stem elongation, visual growth reduction; assay type: in vivo; settings: 225 g a.i./ha spray, 28 days after spray, visually evaluated versus untreated control
From the text: (§2) Plants of winter wheat and summer wheat were sprayed at the beginning of stem elongation, three weeks after sowing. Formulated test compounds 144, 145 and 146 were sprayed at 225 g a.i. (active ingredient)/ha, each, top over leaf with a boom sprayer on the plants. After the spray the plants were transferred to a greenhouse and 28 days after the spray the plant growth reduction was visually evaluated versus an untreated control.

winter wheat = experiment: as above; assay type: in vivo; settings: 225 g a.i./ha spray, 28 days after spray, visually evaluated versus untreated control
From the text: as §2

[3] = tested on: wheat plants cultivar (cv.). Riband; experiment: Plant growth regulation effects on wheat plants; assay type: in vivo; settings: 200 ppm, spray chamber, 8 days at 22° C. and 80% r.h.
Experimental: Two weeks old wheat plants cultivar (cv.). Riband were treated with the formulated test compound in a spray chamber. After an incubation period of 8 days at 22° C. and 80% relative humidity (r.h.) in a greenhouse, the plant growth regulating effects were assessed.

O[C@H](c1cccnc1)c1c(-c2ccc(Cl)cc2F)noc1-c1ccc(F)cc1F (single isomer, unassigned) [Compound 153]
plant growth regulating effect (plant height) [1]: plant height decreased | PGR activity, enantiomer comparison [2]: majority of PGR activity

O[C@@H](c1cccnc1)c1c(-c2ccc(Cl)cc2F)noc1-c1ccc(F)cc1F (single isomer, unassigned) [Compound (S)-(146)]
control of Botrytis cinerea (Botrytis cinerea): at least 80% | control of Mycosphaerella arachidis (Mycosphaerella arachidis): at least 80% | control of Septoria tritici (Septoria tritici): at least 80% | control of Monographella nivalis (Monographella nivalis): at least 80% | control of Fusarium culmorum (Fusarium culmorum): at least 80% | control of Rhizoctonia solani (Rhizoctonia solani): at least 80%

OC(c1cncnc1)c1c(-c2ccc(Cl)cc2F)noc1-c1ccc(F)cc1F (stereo not drawn) [Compound 144]
Summer Wheat % reduction (plant growth reduction) (summer wheat): 10% | Winter Wheat % reduction (plant growth reduction) (winter wheat): 7.5% | plant growth regulating effect (plant height) [1]: plant height decreased | plant growth regulating effect (plant height) [3]: plant height decreased

OC(c1cncnc1)c1c(-c2ccc(Cl)cc2)noc1-c1ccc(F)cc1F (stereo not drawn) [Compound 145]
Summer Wheat % reduction (plant growth reduction) (summer wheat): 17.5% | Winter Wheat % reduction (plant growth reduction) (winter wheat): 5% | plant growth regulating effect (plant height) [1]: plant height decreased

OC(c1cccnc1)c1c(-c2ccc(Cl)cc2F)noc1-c1ccc(F)cc1F (stereo not drawn) [Compound 146, 3-(2-Fluoro-4-Chlorophenyl)-5-(2,4-difluorophenyl)-4-[(3-pyridyl)hydroxymethyl]-isoxazole]
Summer Wheat % reduction (plant growth reduction) (summer wheat): 10% | Winter Wheat % reduction (plant growth reduction) (winter wheat): 10% | melting point: 138 to 140 °C

OC(c1cncnc1)c1c(-c2ccc(Cl)cc2Cl)noc1-c1ccccc1Cl (stereo not drawn) [Compound 147, 3-(2,4-Chlorophenyl)-5-(2-Chlorophenyl)-4-[(3-pyrimidyl)hydroxymethyl]-isoxazole]
plant growth regulating effect (plant height) [1]: plant height decreased

OC(c1cncnc1)c1c(-c2ccc(Cl)cc2F)noc1-c1ccccc1Cl (stereo not drawn) [Compound 148, 3-(2-Fluoro-4-Chlorophenyl)-5-(2-Chlorophenyl)-4-[(3-pyrimidyl)hydroxymethyl]-isoxazole]
plant growth regulating effect (plant height) [1]: plant height decreased

COc1ncccc1-c1onc(-c2ccc(Cl)cc2)c1C(O)c1cncnc1 (stereo not drawn) [Compound 149, 3-(4-Chlorophenyl)-5-(2-Methoxypyridine)-4-[(3-pyrimidyl)hydroxymethyl]-isoxazole]
plant growth regulating effect (plant height) [1]: plant height decreased

OC(c1cncnc1)c1c(-c2ccc(Cl)cc2)noc1-c1ccc(F)cc1 (stereo not drawn) [Compound 150, 3-(4-Chlorophenyl)-5-(4-Fluorophenyl)-4-[(3-pyrimidyl)hydroxymethyl]-isoxazole]
plant growth regulating effect (plant height) [1]: plant height decreased

OC(c1cncnc1)c1c(-c2ccc(Cl)cc2)noc1-c1ccc(F)cc1F (stereo not drawn) [Compound 151, 3-(4-Chlorophenyl)-5-(2,4-Fluorophenyl)-4-[(3-pyrimidyl)hydroxymethyl]-isoxazole]
plant growth regulating effect (plant height) [1]: plant height decreased

OC(c1cccnc1)c1c(-c2ccc(F)cc2F)noc1-c1ccc(F)cc1Cl (stereo not drawn) [Compound 152, 3-(2,4-Diluoro)-5-(2-Chloro-4-Fluorophenyl)-4-[(3-pyridyl)hydroxymethyl]-isoxazole]
plant growth regulating effect (plant height) [1]: plant height decreased
